Test system: Dermatophagoides pteronyssinus
Test: Efficacy against mites (ticking in plastic dish, rated under a stereomicroscope)
Format: in vivo
Settings: 0.4 ml applied to ticking; mixed population; rated after 2 hours, 1, 3 and 7 days; sum of three experimental units after end of experiment; control isopropanol/water = 9.0
Excerpt: A mixed population of the species Dermatophagoides pteronyssinus is used.
The upper rim of a plastic dish (Ø 7 cm, height 3 cm) is provided with glue and then covered with a piece of ticking of the same diameter. A spatula-tip full from a culture dish containing mites and feed (ground Tetramin) is placed on the ticking.
The dish is then placed on an inverted Petri dish in a plastic container (33×22 cm, height 6.5 cm), containing saturated sodium chloride solution, and the container is closed with a lid.
The next day, 0.4 ml of the composition of the invention is applied to the material.
The set-up is illuminated by daylight, the temperature is 24-26° C., and the relative atmospheric humidity within the closed plastic container is approximately 75%.
After 2 hours, 1, 3, and 7 days the state of the mites in comparison with a control treated only with isopropanol/water (1:1) is rated under a stereomicroscope (3=numerous mites, 0=no mites). Direct counting is impossible since dead animals are difficult to see.
If required (control, ineffective products), more feed is added.
Three experimental units are set up for each experiment, and after the end of the experiment the sum of the scores is recorded.

## CC(O)CO (stereo not shown) [5.0% Propylene glycol, Propylene glycol]
  sum of the scores of the state of the mites (0 = no mites, 9 = numerous mites): 9.0

## CCCCCCCCCCCCOS(=O)(=O)[O-].[Na+] [1.0% Na lauryl sulphate, Na lauryl sulphate]
  sum of the scores of the state of the mites (0 = no mites, 9 = numerous mites): 9.0

## Oc1ccccc1-c1ccccc1 [0.1% o-Phenylphenol, o-Phenylphenol]
  sum of the scores of the state of the mites (0 = no mites, 9 = numerous mites): 9.0

## O=C(OCc1ccccc1)c1ccccc1 [5.0% Benzyl benzoate, Benzyl benzoate]
  sum of the scores of the state of the mites (0 = no mites, 9 = numerous mites): 9.0
